{
  "source": "patent US20180020708A1",
  "about": "“GLUCOSYRINGIC ACID ANALOGS AS SWEETNESS PROFILE MODIFIERS” (PepsiCo, Inc., priority 2016, published 2018)",
  "key": {"tasters": {"test_system": "tasters", "test": "Human tasting of sweet/flavor modifying ingredient in HFCS solution versus HFCS control", "assay_type": "in vivo", "protocol": "For testing the material as a sweet/flavor modifying ingredient, two samples were prepared: a 4° Brix high-fructose corn syrup (HFCS) control solution and a 4° Brix HFCS solution with a known concentration of test ingredient.\n4° Brix HFCS control solution was prepared by adding 50.89 grams of 78.60° Brix HFCS to 1000 g phosphoric acid base which was prepared by adding phosphoric acid dropwise into 1 L of Aquafina Water until pH 3.1 was obtained. pH was measured using a METTLER TOLEDO pH meter.\nIf any cloudiness persisted, the sample solution was passed through a paper filter. For some low soluble compounds, Branson 2800 Ultra Sonic Bath was used to dissolve the material. Solubility was confirmed by shining a laser pointer through the solution. If no diffraction was observed then it was assumed that the material was soluble.\nFor each test, 12-16 tasters were presented with these two (2) numbered samples and asked to note the sweet quality differences between the two samples. Tasters were also asked to comment on sweetness onset, sweetness linger, overall sugarlike sweetness and other qualities such as bitter taste, metallic note, astringency, cooling sensation, any offnotes and any associated flavors. Tasters were also asked to assess sample odor differences and provide any descriptions.\nTasters were asked to not to eat at least 1 hour before tasting and rinse with Aquafina water at least 5 times between tasting all samples.\nCompound 5 was added at 35 ppm to 4 Brix HFCS in phosphoric acid (as described above). This solution was compared with 4 Brix HFCS in phosphoric acid."}, "human tasting": {"test_system": "human tasting", "test": "Human tasting of GSA with high potency sweeteners such as rebaudioside A", "assay_type": "in vivo", "conditions": "pure form"}, "[1]": {"conditions": "35 ppm in 4 Brix HFCS in phosphoric acid (pH 3.1) vs 4 Brix HFCS control"}},
  "data": [
    {"smiles": "COc1cc(C(=O)O)cc(OC)c1O[C@@H]1O[C@H](CO)[C@@H](O)[C@H](O)[C@H]1O", "note": "[Compound 5, Syringic acid 4-O-β-D-glucoside]", "values": [
      {"measurement": "overall sugarlike sweetness reported by tasters", "setting": "tasters; [1]", "result": "more sugar-like"},
      {"measurement": "sweetness onset reported by tasters", "setting": "tasters; [1]", "result": "earlier onset"},
      {"measurement": "sweet quality difference reported by tasters", "setting": "tasters; 35 ppm in 4 Brix HFCS in phosphoric acid (pH 3.1) vs 4 Brix HFCS control, majority of 12-16 tasters noted a difference", "result": "rounder sweetness"},
      {"measurement": "overall sweetness of nutritive sweetener sweetened beverages", "setting": "tasters; pure form, human tasting, nutritive sweetener e.g. high-fructose corn syrup (HFCS)", "result": "effective in increasing the overall sweetness"},
      {"measurement": "sweet quality of sweetened beverages", "setting": "tasters; pure form, human tasting, sweetened beverages", "result": "improving the sweet quality"},
      {"measurement": "bitter, metallic and licorice off-notes of high potency sweeteners", "setting": "human tasting; e.g. 300 ppm solution of Rebaudioside A in phosphate buffer", "result": "decreasing bitter, metallic and licorice off-notes"},
      {"measurement": "sweetness time-of-onset for high potency sweeteners", "setting": "human tasting; high potency sweeteners such as rebaudioside A", "result": "decreasing the sweetness time-of-onset"}
    ]}
  ]
}
